We go through two compounds from PMC11207335, “In Vitro Metabolism and Transport Characteristics of Zastaprazan” (Pharmaceutics, 2024).

For data set [1], the system named is human liver microsomes (HLM). Put plainly: Enzyme kinetics of JP-1366 metabolism in human liver microsomes. The class given is in vitro ADME. As to the method: (§1) The reaction was initiated by adding 5 μL of NADPH-generating system in triplicate, and the mixture was further incubated for 30 min at 37 °C in a shaking water bath.
(§2) The concentrations of the metabolites were quantitated, and their formation rates (pmol/mg protein/min) were calculated by dividing the amounts of metabolites formed from the incubation with human liver microsomes and human cDNA-expressed CYP or UGT enzymes by the incubation time.
In general terms: Microsomes from liver hold many membrane-bound enzymes, among them those of drug oxidation.

In data set [2] the target is T1, human cDNA-expressed CYP2C8 (Homo sapiens, UniProt P10632).
T1 construct: purchased Corning Life Sciences
T1 sequence (P10632 1-490): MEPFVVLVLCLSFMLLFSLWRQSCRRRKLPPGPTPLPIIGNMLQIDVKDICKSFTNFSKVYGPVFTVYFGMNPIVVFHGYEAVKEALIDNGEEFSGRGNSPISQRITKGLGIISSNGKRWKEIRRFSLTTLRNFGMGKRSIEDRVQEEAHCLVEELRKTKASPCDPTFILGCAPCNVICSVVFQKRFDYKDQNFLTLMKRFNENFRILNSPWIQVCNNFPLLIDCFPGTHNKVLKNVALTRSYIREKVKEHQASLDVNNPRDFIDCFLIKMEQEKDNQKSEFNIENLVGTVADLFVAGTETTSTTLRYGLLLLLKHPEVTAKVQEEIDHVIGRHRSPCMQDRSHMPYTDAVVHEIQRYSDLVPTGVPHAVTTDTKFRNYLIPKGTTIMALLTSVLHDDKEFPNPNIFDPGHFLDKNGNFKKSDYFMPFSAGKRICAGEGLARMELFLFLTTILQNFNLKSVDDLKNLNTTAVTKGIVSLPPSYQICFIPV
Description: Enzyme kinetics of JP-1366 metabolism in cDNA-expressed CYP2C8. The class given is in vitro ADME. As to the method: as §1, §2

Data set [3] addresses T2, human cDNA-expressed CYP1A2 (Homo sapiens, UniProt P05177).
T2 construct: purchased Corning Life Sciences
T2 sequence (P05177 1-516): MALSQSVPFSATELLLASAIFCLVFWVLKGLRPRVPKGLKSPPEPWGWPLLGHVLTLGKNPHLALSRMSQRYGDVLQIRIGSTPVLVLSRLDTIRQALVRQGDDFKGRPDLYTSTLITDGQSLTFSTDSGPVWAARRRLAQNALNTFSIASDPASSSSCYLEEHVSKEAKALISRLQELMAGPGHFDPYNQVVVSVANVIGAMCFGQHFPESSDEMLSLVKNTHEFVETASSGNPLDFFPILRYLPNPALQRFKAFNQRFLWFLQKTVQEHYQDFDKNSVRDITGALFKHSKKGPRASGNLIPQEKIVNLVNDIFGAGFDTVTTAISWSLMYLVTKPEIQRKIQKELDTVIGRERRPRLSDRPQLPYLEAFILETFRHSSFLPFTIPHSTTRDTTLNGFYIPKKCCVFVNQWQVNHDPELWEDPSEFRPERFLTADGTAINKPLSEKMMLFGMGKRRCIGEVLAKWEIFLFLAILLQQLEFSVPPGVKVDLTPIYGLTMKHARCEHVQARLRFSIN
Description: Enzyme kinetics of JP-1366 metabolism in cDNA-expressed CYP1A2. The class given is in vitro ADME. As to the method: as §1, §2

Data set [4] concerns the target MT1 (Homo sapiens, UniProt P48039). Put plainly: BioPrint profiling, MT1. To be noted: BioPrint profiling (Eurofins CEREP). The source says:
(§3) However, the involvement of multiple metabolizing enzymes such as CYP1A2, CYP2C9/19, CYP1A2, and CYP2D6 with a minor contribution in the formation of M1, M6, M19, and M21 and the involvement of UGT1A1 and UGT2B7 in the formation of M15 from M1 and the formation of 23 metabolites might reduce the risk of drug–drug interaction potential mediated by a single metabolizing enzyme and a main metabolite. Additionally, it may reduce the intersubject variability caused by genetic variations in these metabolizing enzymes.

In data set [5] the test system is gastric pH. To be noted: cited from earlier work; for % time pH > 4.0 over a period of 24 h: 40 mg dose group, healthy subjects.
Data set [6] deals with A3 (Homo sapiens, UniProt P0DMS8). Description: BioPrint profiling, A3. To be noted: BioPrint profiling (Eurofins CEREP).
Sequence of A3 (P0DMS8 whole entry): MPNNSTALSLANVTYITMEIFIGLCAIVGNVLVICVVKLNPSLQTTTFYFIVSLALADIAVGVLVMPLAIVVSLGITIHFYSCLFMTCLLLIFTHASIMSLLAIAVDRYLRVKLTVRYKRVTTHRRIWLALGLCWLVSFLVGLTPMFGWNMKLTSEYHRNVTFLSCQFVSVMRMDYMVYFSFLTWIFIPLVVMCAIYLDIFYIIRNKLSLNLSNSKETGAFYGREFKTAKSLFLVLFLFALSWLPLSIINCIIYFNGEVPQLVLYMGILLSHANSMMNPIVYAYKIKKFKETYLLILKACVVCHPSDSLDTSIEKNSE
From the text: as §3

Data set [7] addresses α2B (Homo sapiens, UniProt P18089). Put plainly: BioPrint profiling, α2B. To be noted: BioPrint profiling (Eurofins CEREP).
[8] abbreviates: formation of the labelled metabolite from JP-1366, CYP1A2.

Broadly, the IC50 is the concentration at which inhibition is half-maximal.

Where “and” joins values, the source holds several entries; their conditions need not be identical. Equal values may be shown once. Read-outs that look alike come from different tables or passages of the source.

Sequence of α2B (P18089 whole entry): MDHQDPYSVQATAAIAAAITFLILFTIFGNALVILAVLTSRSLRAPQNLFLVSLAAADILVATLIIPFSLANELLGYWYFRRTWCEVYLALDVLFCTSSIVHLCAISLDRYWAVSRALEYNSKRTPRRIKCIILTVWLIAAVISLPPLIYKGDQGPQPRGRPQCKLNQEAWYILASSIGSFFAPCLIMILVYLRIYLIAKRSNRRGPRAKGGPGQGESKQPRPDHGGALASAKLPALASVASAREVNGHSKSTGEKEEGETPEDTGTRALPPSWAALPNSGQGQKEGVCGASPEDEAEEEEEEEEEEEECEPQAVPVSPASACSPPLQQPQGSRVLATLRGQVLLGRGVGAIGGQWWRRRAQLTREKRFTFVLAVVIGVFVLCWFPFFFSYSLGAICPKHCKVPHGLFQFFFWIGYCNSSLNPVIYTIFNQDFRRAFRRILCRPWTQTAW
Sequence of MT1 (P48039 whole entry): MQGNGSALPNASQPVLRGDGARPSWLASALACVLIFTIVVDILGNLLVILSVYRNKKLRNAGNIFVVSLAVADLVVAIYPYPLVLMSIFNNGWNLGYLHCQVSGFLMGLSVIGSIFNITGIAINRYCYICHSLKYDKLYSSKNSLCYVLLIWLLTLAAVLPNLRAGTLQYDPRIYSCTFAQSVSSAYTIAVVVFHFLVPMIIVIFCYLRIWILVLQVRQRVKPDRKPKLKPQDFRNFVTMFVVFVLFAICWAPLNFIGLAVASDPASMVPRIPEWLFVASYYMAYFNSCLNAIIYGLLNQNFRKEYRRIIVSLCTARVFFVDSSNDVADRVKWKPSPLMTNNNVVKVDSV

For the compound `Cc1cccc(CO)c1CNc1cc(C(=O)N2CCC2)cn2c(C)c(C)nc12` [M1, azetidin-1-yl(8-((2-(hydroxymethyl)-6-methyl-benzyl)amino)-2,3-dimethylimidazo[1,2-a]pyridin-6-yl)methanone], the Vmax in data set [1] (formation of the labelled metabolite from JP-1366, HLM) is on record as 826.1 pmol/min/mg protein. Moreover, the Ki in data set [1] (substrate inhibition kinetics, formation of the labelled metabolite, HLM) worked out at 96500 nM; in data set [2] (substrate inhibition kinetics, formation of the labelled metabolite, CYP2C8), 197000 nM. In addition, the CLint in data set [2] (formation of the labelled metabolite from JP-1366, CYP2C8) is listed as 0.031 μL/min/pmol CYP; in data set [3] (setting [8]) it was 0.0014 μL/min/pmol CYP. For the same compound, the “Contribution (%)” value was determined as 3.7% in data set [2] (relative contribution of CYP2C8 to formation of the labelled metabolite) and 0.1% in data set [3] (relative contribution of CYP1A2 to formation of the labelled metabolite). Also, the “n (Hill coefficient)” value in data set [3] (setting [8]) is given as 0.6.
For `Cc1cccc(C)c1CNc1cc(C(=O)N2CCC2)cn2c(C)c(C)nc12` [JP-1366, 1-azetidinyl(8-(((2,6-dimethylphenyl)methyl)amino)-2,3-dimethylimidazo(1,2-a)pyridin-6-yl)methanone], the IC50 in data set [4] is 870 nM; in data set [6], 2700 nM; in data set [7], 1200 nM. Also, the “% time pH > 4.0 over a period of 24 h” value in data set [5] (MAD) was 89.28 ± 9.12% and 89.28% ± 9.12%; in data set [5] (SAD) it was 91.84% ± 4.06%. In addition, the “% time pH > 4 at nighttime” value in data set [5] (repeated 40 mg dose) is 89.28% ± 9.12%.
